Reference: patent US20160340683A1, “NANOCARRIER BASED PLANT TRANSFECTION AND TRANSDUCTION” (HER MAJESTY THE QUEEN IN RIGHT OF CANADA AS REPRESENTED BY …, priority 2007, published 2016)
fluorescein = fluorescein label at the N-terminus

Key:
immature embryos = test: Translocation of fluoresceinated CPPs in zygotic embryos, fluorescence microscopy; type: cell-based, Triticale cv AC Alta; settings: for Fluorescence under fluorescence microscope, overall comparison: mature and immature embryos, with or without permeabilization
Method: The embryos were isolated from spikes two weeks post-anthesis (scutellum diameter 1-2 mm). The immature seeds were surface sterilized with 70% ethanol for 30 s followed by treatment with 10% hypochlorite (Chlorex) and a drop of Tween 20, 3 min. Four washings of 1 min each were given with sterile water. The embryos were hand dissected under sterile conditions. Isolated embryos were placed on GEM medium (Eudes et al, 2003) for 24 h in dark at room temperature prior to CPP translocation studies.
Isolated and sterilized embryos (20-25) were imbibed in total volume of 420 μl permeabilization buffer (15 mM sodium chloride, 1.5 mM sodium citrate, pH 7.1) containing cellular permeabilization agent toluene/ethanol (1:4) in 1:20 ratio with permeabilization buffer. To this 2.1 μl of 1 mM fluoresceinated CPP was added to give a final concentration of 5 μM. In negative controls, the embryos were treated with FITC-dextran sulphate or M-Tat. The embryos were incubated in the permeabilization mix for 1 h in dark at room temperature, followed by two washings with permeabilization buffer. The embryos were then treated with trypsin:EDTA (0.25% solution, Sigma-Aldrich) in 1:2 ratio with permeabilization buffer for 5 min at room temperature to remove free peptide molecules. Embryos were washed two times with permeabilization buffer and subjected either for fluorescence microscopy or spectrofluorimetric analysis.

[1] = tested on: isolated microspores of Triticale (variety Sunray); test: CPP delivery of GUS enzyme into isolated microspores, GUS staining; type: cell-based; settings: GUS enzyme cargo:CPP 1:4, 1 hour at 37° C., three repeats
Method: Triticale line Sunray grown in a growth cabinet with a photoperiod of 19 h day (intensity 300 μE m-2 s-1), and temperature 18-15° C. (day-night) with a relative humidity at about 70% was used as the donor plant material. The plants were fertilized every 2 weeks (20-20-20, 200 ppm) and treated with 2.5 ml I-1 Tilt™ (propiconazole, Syngenta) during the tillering stage and Intercept™ (0.004 g per litre of soil, Imidacloprid, Bayer) once sufficient root development was established. The first 10 tillers from each pot were harvested when the spike was at 3-4 cm, depending on the crop, from emergence from the boot. These tillers (to be used for microspore isolation) were subjected to pre-treatment in a refrigerator (4° C.) for 21 days with their bases in distilled water and their heads wrapped in aluminum foil. After 21±3 days of pre-treatment, the spikes were excised from their tillers and after an evaluation of their general appearance, only the most homogenous spikes were used. After confirming microspores at mid to bi-nucleate stage from a median floret, using acetocarmine staining, the tillers were processed for extraction.
Awns were removed with scissors in a laminar flow hood. Eight-fourteen spikes were used for microspore isolation. They were sterilized with 10% bleach (5.25% sodium hypochlorite) for 3 min followed by rinsing in sterile double distilled water four times of 1 min each with constant agitation. Outer glumes were removed and florets from all the spikes were aseptically dissected and transferred to a sterile and refrigerated 110 ml Warring blender cup (VWR international, #58983-093) containing 50 ml filter sterilized extraction buffer at 4° C. Florets were then blended twice for 7 s at low speed (18000 rpm). The slurry was then poured through a 1 mm sieve followed by pouring through a 100 μm sterile mesh (VWR International, #CA21008-950) into two 50 ml centrifuge tubes (25 ml each). The blender cup was rinsed with 50 ml extraction buffer at 4° C. and poured through the 100 μm mesh and was added to the first aliquot in the 50 ml tubes. The cells were then pelleted by centrifugation (100×g for 5 min at 4° C.) using a swinging bucket rotor. After pouring off the supernatant, the microspore-containing pellets were pooled together in one 50 ml tube and re-suspended in 50 ml cold extraction buffer. The cells were pelleted again with centrifugation (100×g for 5 min at 4° C.), the supernatant poured off and the pellet was transferred to a 15 ml tube. After re-suspending the pellet in CIMC Wash Buffer supplemented with 10 microM SS-31 peptide, it was subjected to wash and centrifugation using the above conditions. The supernatant was removed and the pellet was re-suspended in CIMC Wash buffer and centrifugation was repeated as above. The pellet was then suspended in 7 mL of 20% maltose at 4° C., layered with 1 mL of CIMC wash buffer and was centrifuged at 100 g for 13 min at 4° C. A band of microspores formed at the interface was collected in a new 15 ml tube. The cells were diluted with CIMC wash solution and subsequently collected by centrifugation at 150 g for 5 min. The supernatant was removed and the cells were finally suspended in a total volume of 1.4 ml of appropriate solution. After counting the cells using a haemocytometer, aliquots of 100,000 cells in 200 μl volume were prepared in 2 ml microcentrifuge tubes to be ready for transduction.
Peptide stock solutions were made in water at 1 μg/μl concentration. CPP (Nanocarrier) and GUS enzyme (cargo) were first prepared in separate microcentrifuge tubes. A total of 4 μg of CPP was prepared in sterile water to a final volume of 100 μl. Similarly, 1 μg of GUS enzyme was added to sterile water to a final volume of 100 μl. The contents of the two tubes were mixed together giving a ratio of 1:4 protein cargo:CPP. The complex was incubated for 30 min at room temperature (RT). Chariot (PAP1) protein delivering reagent was used as a positive control in the experiments. […]

| Substance | Average Transduction Efficiency [1] [%] | further results |
| --- | --- | --- |
| Dextran Sulphate |  | Uptake seen by fluorescence microscopy (FIG. 1) (immature embryos; in the presence of cellular permeabilizing agent (toluene)): some fluorescence; Fluorescence under fluorescence microscope, overall comparison (immature embryos): none or very weak fluorescence; Uptake seen by fluorescence microscopy (FIG. 1) (immature embryos; without cellular permeabilizing agent): did not demonstrate any significant uptake |
| FI-LLIILRRRIRKQAHAHSK-amide (fluorescein-LLIILRRRIRKQAHAHSK-NH2) [pVEC] |  | Fluorescence under fluorescence microscope, overall comparison (immature embryos): least uptake |
| KAKKNRSHIGKLKMTKTSGRKRSR [CPP21] | 0 |  |
| KEKKKERRGVRDKERDK [CPP53] | 0 |  |
| KGHRFRSKFRHYRFRFR [CPP45] | 0 |  |
| KKKGKGKKKKQGK [CPP4] | 0 |  |
| KKKKKKKRPTALTPTPSLLRRRRRRR [CPP26] | 0 |  |
| KRKKSGKKKKIGRFLSRLVGAEKRR [CPP9] | 5.79 |  |
| KRKPKGGDAAEGSEKRKPKKKK [CPP16] | 0 |  |
| KRRRSWRRRRSRTRQRRRRSRRRRRRRR [CPP41] | 21.17 |  |
| KSKANRHRHHRRHRQQKPTTTRRRRR [CPP64] | 5.40 |  |
| KTAATTLRRRRRRRRGRR [CPP28] | 5.61 |  |
| MALERPWKRRRRRRR [CPP47] | 0 |  |
| MDERRRRRRRLTATRKVAAARRRRKRR [CPP54] | 6.21 |  |
| MRRRRRRRRR [CPP48] | 1.09 |  |
| RAGVDGRGRRRRRRRR [CPP50] | 1.31 |  |
| RARRRSTARRRKRRTPTRSGR [CPP32] | 1.26 |  |
| RAWYRFRHLVRGKWRERLRRKFK [CPP62] | 9.78 |  |
| RCRRRRRRRETTSR [CPP67] | 0 |  |
| RKEKKRIKQRKAFIMAEKKKRK [CPP13] | 0 |  |
| RKKKGKRKEERER [CPP55] | 0 |  |
| RKQPGRKPGVRTARPKRSKKSQLKK [CPP58] | 0 |  |

| Substance | Average Transduction Efficiency [1] [%] | further results |
| --- | --- | --- |
| RKRKEENTGRRRRRRRERKRR [CPP22] | 1.94 |  |
| RKRKRGKGIGSGRGRGRGR [CPP43] | 0 |  |
| RKRKRGKGIGSGRGRGRGRASGSEKGRGSGKGKAK [CPP44] | 11.27 |  |
| RLKRRRRRRRKVSRR [CPP33] | 15.67 |  |
| RLRRLLLPLRRRRRLRQRRR [CPP25] | 8.7 |  |
| RPLPLPLPLPRGPRRRRRRR [CPP30] | 0 |  |
| RRARRRTRRGGGEAGRRQERRRRRRRR [CPP31] | 0 |  |
| RRDGVPRRRRRRRHMGRQR [CPP27] | 2.06 |  |
| RRFRRTAPRAAGEARGLRRLRKSR [CPP57] | 5.77 |  |
| RRGWRWRSAPRGGSRRRRRRRR [CPP12] | 5.25 |  |
| RRHRQQKPTTTRRRRR [CPP65] | 0 |  |
| RRKNDKPKTGGEKKSTKDAPESSKKKNRK [CPP61] | 0 |  |
| RRLRCRREGKEKR [CPP60] | 0 |  |
| RRLTTGLSFYSKPYRRSRGPRHRTEKRKRIR [CPP56] | 5.47 |  |
| RRPHSRHRRRRRRR [CPP10] | 0 |  |
| RRRGIKPNAKRRRRRRRR [CPP23] | 0 |  |
| RRRGRRRRRRRRQRQQRR [CPP6] | 15.07 |  |
| RRRGRRRRRRRRQRQQRRQEGNRRR [CPP5] | 5.88 |  |
| RRRIAGSALVGAPPQARRRRRRR [CPP52] | 0 |  |
| RRRKGSSYRRRRRRRRR [CPP20] | 0 |  |
| RRRPRPARLRHRLHRPINLKFERK [CPP15] | 9.23 |  |
| RRRQERRER [CPP63] | 0 |  |

| Substance | Average Transduction Efficiency [1] [%] | further results |
| --- | --- | --- |
| RRRRARGKRCWLRRRRRR [CPP49] | 11.89 |  |
| RRRRKKRGRKGRDKEERRDR [CPP42] | 1.20 |  |
| RRRRKKRGRKGRDKEERRDRRRRRRR [CPP11] | 16.61 |  |
| RRRRKKRGRKGRDKEERRDRRRRRRR [CPP40] | 11.74 |  |
| RRRRRITRVRRRRRRR [CPP39] | 13.15 |  |
| RRRRRRRAGERRAREDMGRRKFR [CPP19] | 0 |  |
| RRRRRRREKLAEATRGGGEKR [CPP35] | 0 |  |
| RRRRRRRGRDARRR [CPP8] | 2.78 |  |
| RRRRRRRRHEQRRRRRKRGRGR [CPP2] | 18.7 |  |
| RRRRRRRRHGRR [CPP24] | 18.77 |  |
| RRRRRRRRRRKRGGRR [CPP14] | 0 |  |
| RRRRRRRRRRVRFDSRR [CPP7] | 16.63 |  |
| RRRRWRHRCATKTAATTLRRRRRRRRGRR [CPP29] | 22.25 |  |
| RRRVGRRAPRRRRR [CPP51] | 0 |  |
| RRSGRRQRRRRRRRRKR [CPP66] | 23.38 |  |
| RRSKRDVRGRQRRRRRRRLFPRR [CPP1] | 21.07 |  |
| RRSLLSRRIRRRLRRRPKPRRRRRRR [CPP46] | 9.31 |  |
| RRWRRRRSRRRRRRRRR [CPP18] | 0 |  |
| RSGRRDRRRKKGSAR [CPP59] | 0 |  |
| RSSRRAAEGRRRRRRRREKR [CPP36] | 0 |  |
| RTSKRRVRRRRRRR [CPP38] | 0 |  |
| RVRSSRRAAEGRRRRRRREKR [CPP37] | 1.94 |  |
